In PMC5548886 (Cancer Medicine, 2017):
Read-outs that look alike come from different tables or passages of the source.

What was measured:
[1] = Pharmacokinetics, unchanged RAF265 in plasma; format: in vivo, human; settings: for Cmin, Mean (SD): Steady State (average of troughs from Cycle 2 Day 1 onwards); for AUC(0-t) / Cmax / Tmax / half-life: human, plasma, oral; for AUC(0-t): read-out: AUC(0-tlast), Mean (SD); for Cmax: read-out: Cmax, Mean (SD); for Tmax: read-out: Tmax, Median
Description: PK parameters included the maximum observed concentration (C max), time to reach C max (T max), area under the curve from time 0 to last measurable concentration (AUClast), time point of the last measurable concentration (T last), and terminal half‐life of elimination phase (T 1/2). Cycle 1 Day 1 and day 15, reported PK parameters include C max, T max, AUClast and T last. Following log‐transformation, the PK parameters AUC and C max from the PK run‐in were analyzed separately using a mixed effects model fitting terms for dose and patient (Patient treated as a random factor)‐ln(PK parameter) = a + b*ln(Dose)+error. In this model, the dose‐exposure relationship is mainly characterized by the slope parameter b. A slope lower (higher) than 1 indicates an under (over) proportional dose‐exposure relationship. The point estimate and associated 90% CI for the slope parameter were determined for safety considerations.

[2] = tested on: MITF; assay: IHC of tumor biopsies, H-score change on-treatment vs pretreatment; format: in vivo, human
Description: Pharmacodynamic markers were examined using peripheral blood samples, tumor and nevi biopsies (when available) and tumor imaging. BRAF mutation status was determined by Sanger sequencing. Pharmacodynamic markers analyzed, in available tumor/nevus samples obtained before treatment or archival tissue and during treatment on cycle 1, day 8 or day 15, including cytoplasmic p‐MEK, p‐ERK, BIM, c‐KIT, p‐AKT473, pS6 and PTEN, and nuclear p‐ERK, Ki‐67, PARP, cyclin D1, MITF, p27, and p53. Biomarker expression was determined by calculating the percentage of change in the H‐score (14) between on‐treatment and fresh/archival pretreatment specimens. Blood levels of VEGFR‐2 and were assessed before and at multiple time points while on treatment using enzyme‐linked immunosorbent assay (ELISA). […] Changes in standard uptake value (SUV) were determined by a blinded, independent central imaging review panel. Complete metabolic response (CMR) was complete resolution of tumor FDG‐PET uptake so SUV is the same as background. Partial metabolic response (PMR) decrease in sum of the tumor SUV of ≥25% from the baseline scan. Progressive metabolic disease (PMD) was defined as an increase in tumor SUV of ≥25% from the baseline scan, or the appearance of new FDG‐PET uptake in metastatic lesions. Stable metabolic disease (SMD) was defined as a change in tumor SUV between the PMR and PMD criteria.

[3] = tested on: wild-type BRAF protein; settings: read-out: EC50 for the wild-type BRAF protein; preclinical; cited from earlier work
[4] = 2 mg, Cycle 1 Day 15, DL 1, MD 2 mg
[5] = 3 mg, Cycle 1 Day 15, DL 2, MD 3 mg
[6] = 6 mg, Cycle 1 Day 15, DL 3, MD 6 mg
[7] = 8 mg, Cycle 1 Day 1, DL 1, LD 8 mg
[8] = 10 mg, First dose (PK run-in), DL 1, 10 mg
[9] = 12 mg, Cycle 1 Day 15, DL 4, MD 12 mg
[10] = 16 mg, Cycle 1 Day 1, DL 2, LD 16 mg
[11] = 20 mg, First dose (PK run-in), DL 2, 20 mg
[12] = 24 mg, Cycle 1 Day 15, DL 5, MD 24 mg
[13] = 29 mg, Cycle 1 Day 1, DL 3, LD 29 mg
[14] = 36 mg, First dose (PK run-in), DL 3, 36 mg
[15] = 48 mg, Cycle 1 Day 15, DL 6, MD 48 mg
[16] = 58 mg, Cycle 1 Day 1, DL 4, LD 58 mg
[17] = 67 mg, Cycle 1 Day 15, DL 7, MD 67 mg
[18] = 67 mg, Cycle 1 Day 15, DL 7.1, MD 67 mg
[19] = 72 mg, First dose (PK run-in), DL 4, 72 mg
[20] = 115 mg, Cycle 1 Day 1, DL 5, LD 115 mg
[21] = 144 mg, First dose (PK run-in), DL 5, 144 mg
[22] = 230 mg, Cycle 1 Day 1, DL 6, LD 230 mg
[23] = 288 mg, Cycle 1 Day 1, DL 7.1, LD 288 mg as three doses
[24] = 288 mg, First dose (PK run-in), DL 6, 288 mg
[25] = 322 mg, Cycle 1 Day 1, DL 7, LD 322 mg
[26] = 403 mg, First dose (PK run-in), DL 7, 403 mg

Which results are given for `Cn1c(Nc2ccc(C(F)(F)F)cc2)nc2cc(Oc3ccnc(-c4ncc(C(F)(F)F)[nH]4)c3)ccc21` [RAF265]?
Tlast, Median ([1]; Cycle 1 Day 1, DL 1, LD 8 mg): 25 h; Tlast, Median ([1]; Cycle 1 Day 1, DL 2, LD 16 mg): 22.9 h; Tlast, Median ([1]; Cycle 1 Day 1, DL 3, LD 29 mg): 23.8 h; Tlast, Median ([1]; Cycle 1 Day 1, DL 4, LD 58 mg): 24.4 h; Tlast, Median ([1]; Cycle 1 Day 1, DL 5, LD 115 mg): 24 h; Tlast, Median ([1]; Cycle 1 Day 1, DL 6, LD 230 mg): 24.1 h; Tlast, Median ([1]; Cycle 1 Day 1, DL 7, LD 322 mg): 24 h; Tlast, Median ([1]; Cycle 1 Day 1, DL 7.1, LD 288 mg as three doses): 23.8 h; Tlast, Median ([1]; Cycle 1 Day 15, DL 1, MD 2 mg): 25.3 h; Tlast, Median ([1]; Cycle 1 Day 15, DL 2, MD 3 mg): 22.5 h; Tlast, Median ([1]; Cycle 1 Day 15, DL 3, MD 6 mg): 24.1 h; Tlast, Median ([1]; Cycle 1 Day 15, DL 4, MD 12 mg): 24 h; Tlast, Median ([1]; Cycle 1 Day 15, DL 5, MD 24 mg): 24 h; Tlast, Median ([1]; Cycle 1 Day 15, DL 6, MD 48 mg): 23.7 h; Tlast, Median ([1]; Cycle 1 Day 15, DL 7, MD 67 mg): 23.4 h; Tlast, Median ([1]; Cycle 1 Day 15, DL 7.1, MD 67 mg): 23.8 h; Tlast, Median ([1]; First dose (PK run-in), DL 1, 10 mg): 168 h; Tlast, Median ([1]; First dose (PK run-in), DL 2, 20 mg): 168 h; Tlast, Median ([1]; First dose (PK run-in), DL 3, 36 mg): 168 h; Tlast, Median ([1]; First dose (PK run-in), DL 4, 72 mg): 167 h; Tlast, Median ([1]; First dose (PK run-in), DL 5, 144 mg): 167 h; Tlast, Median ([1]; First dose (PK run-in), DL 6, 288 mg): 167 h; Tlast, Median ([1]; First dose (PK run-in), DL 7, 403 mg): 168 h; Cmin, Mean (SD) ([1]; DL 1, MD 2 mg): 1.23 (0.22) ug/mL; Cmin, Mean (SD) ([1]; DL 2, MD 3 mg): 1.51 (0.82) ug/mL; Cmin, Mean (SD) ([1]; DL 3, MD 6 mg): 1.82 (0.28) ug/mL; Cmin, Mean (SD) ([1]; DL 4, MD 12 mg): 4.31 (1.22) ug/mL; Cmin, Mean (SD) ([1]; DL 5, MD 24 mg): 7.31 (1.99) ug/mL; Cmin, Mean (SD) ([1]; DL 6, MD 48 mg): 13.1 (5.57) ug/mL; Cmin, Mean (SD) ([1]; DL 7, MD 67 mg): 21.8 (3.76) ug/mL; Cmin, Mean (SD) ([1]; DL 7.1, MD 67 mg): 15.5 (7.47) ug/mL; dose dependence of mean Cmax and AUC ([1]; across dose levels): increased nearly proportionally with dose; AUC(0-t) [1, 4]: 2670 ng·h/mL; Cmax [1, 4]: 130 ng/mL; Tmax [1, 4]: 3 h; AUC(0-t) [1, 5]: 2300 ng·h/mL; Cmax [1, 5]: 120 ng/mL; Tmax [1, 5]: 3.07 h; AUC(0-t) [1, 6]: 4150 ng·h/mL; Cmax [1, 6]: 200 ng/mL; Tmax [1, 6]: 2.52 h; AUC(0-t) [1, 7]: 2080 ng·h/mL; Cmax [1, 7]: […]; Tmax [1, 7]: 4 h; AUC(0-t) [1, 8]: 6200 ng·h/mL; Cmax [1, 8]: […]; half-life ([1]; 10 mg, First dose (PK run-in), DL 1, 10 mg, read-out: T1/2, Median (converted)): 287 h; Tmax [1, 8]: 3 h; AUC(0-t) [1, 9]: 8590 ng·h/mL; Cmax [1, 9]: 420 ng/mL; Tmax [1, 9]: 5.13 h; AUC(0-t) [1, 10]: 2650 ng·h/mL; Cmax [1, 10]: 170 ng/mL; Tmax [1, 10]: 3 h; AUC(0-t) [1, 11]: 8770 ng·h/mL; Cmax [1, 11]: 150 ng/mL; half-life ([1]; 20 mg, First dose (PK run-in), DL 2, 20 mg, read-out: T1/2, Median (converted)): 209 h; Tmax [1, 11]: 2 h; AUC(0-t) [1, 12]: 16100 ng·h/mL; Cmax [1, 12]: 850 ng/mL; Tmax [1, 12]: 2.75 h; AUC(0-t) [1, 13]: 3930 ng·h/mL; Cmax [1, 13]: 276 ng/mL; Tmax [1, 13]: 3.53 h; AUC(0-t) [1, 14]: 12100 ng·h/mL; Cmax [1, 14]: 260 ng/mL; half-life ([1]; 36 mg, First dose (PK run-in), DL 3, 36 mg, read-out: T1/2, Median (converted)): 127 h; Tmax [1, 14]: 2.52 h; AUC(0-t) [1, 15]: 28500 ng·h/mL; Cmax [1, 15]: 1650 ng/mL; Tmax [1, 15]: 3.93 h; AUC(0-t) [1, 16]: 7280 ng·h/mL; Cmax [1, 16]: 500 ng/mL; Tmax [1, 16]: 3 h; AUC(0-t) [1, 17]: 46800 ng·h/mL; Cmax [1, 17]: 2650 ng/mL; Tmax [1, 17]: 4 h; AUC(0-t) [1, 18]: 35400 ng·h/mL; Cmax [1, 18]: 1830 ng/mL; Tmax [1, 18]: 3 h; AUC(0-t) [1, 19]: 22600 ng·h/mL; Cmax [1, 19]: 540 ng/mL; half-life ([1]; 72 mg, First dose (PK run-in), DL 4, 72 mg, read-out: T1/2, Median (converted)): 174 h; Tmax [1, 19]: 2.01 h; AUC(0-t) [1, 20]: 15700 ng·h/mL; Cmax [1, 20]: 1070 ng/mL; Tmax [1, 20]: 2 h; AUC(0-t) [1, 21]: 51800 ng·h/mL; Cmax [1, 21]: 1060 ng/mL; half-life ([1]; 144 mg, First dose (PK run-in), DL 5, 144 mg, read-out: T1/2, Median (converted)): 182 h; Tmax [1, 21]: 2.15 h; AUC(0-t) [1, 22]: 28100 ng·h/mL; Cmax [1, 22]: 2250 ng/mL; Tmax [1, 22]: 2.58 h; AUC(0-t) [1, 23]: 18400 ng·h/mL; Cmax [1, 23]: 1130 ng/mL; Tmax [1, 23]: 22.3 h; AUC(0-t) [1, 24]: 99800 ng·h/mL; Cmax [1, 24]: 2310 ng/mL; half-life ([1]; 288 mg, First dose (PK run-in), DL 6, 288 mg, read-out: T1/2, Median (converted)): 183 h; Tmax [1, 24]: 3 h; AUC(0-t) [1, 25]: 39000 ng·h/mL; Cmax [1, 25]: 2720 ng/mL; Tmax [1, 25]: 3 h; AUC(0-t) [1, 26]: 137000 ng·h/mL; Cmax [1, 26]: 2680 ng/mL; half-life ([1]; 403 mg, First dose (PK run-in), DL 7, 403 mg, read-out: T1/2, Median (converted)): 294 h; Tmax [1, 26]: 3 h; half-life ([1]; patients, read-out: half-life (converted)): ~192 h; half-life ([1]; patients, read-out: serum half-life (converted)): ~200 h; MITF % change vs pretreatment, Mean(SD) ([2]; All patients, n 21): +197.3(856.9) %; MITF % change vs pretreatment, Median ([2]; All patients, n 21): -13.2%; MITF % change vs pretreatment, Mean(SD) ([2]; DL 5, n 2): +11.8 (23.7) %; MITF % change vs pretreatment, Median ([2]; DL 5, n 2): +11.8%; MITF % change vs pretreatment, Mean(SD) ([2]; DL 6, n 6): +20.1 (111.3) %; MITF % change vs pretreatment, Median ([2]; DL 6, n 6): -6.60%; MITF % change vs pretreatment, Mean(SD) ([2]; DLs 1 - 4, n 9): +400.6(1312.5) %; MITF % change vs pretreatment, Median ([2]; DLs 1 - 4, n 9): -27.3%; MITF % change vs pretreatment, Mean(SD) ([2]; DLs 7 and 7.1, n 4): +98.6 (239.7) %; MITF % change vs pretreatment, Median ([2]; DLs 7 and 7.1, n 4): 0%; EC50 [3]: […]
